Test results published in the kinase profiling compilation of Christmann-Franck et al. (2016).

Tests used:
Assay in all cases: KINOMEscan competition binding
Details in all cases: compound 10.0 µM
RIPK1 (human) = RIPK1 (human) (UniProt Q13546)
STK4 (human) = STK4 (human) (UniProt Q13043)
STK33 (human) = STK33 (human) (UniProt Q9BYT3)
ACVR2B (human) = ACVR2B (human) (UniProt Q13705)
CLK4 (human) = CLK4 (human) (UniProt Q9HAZ1)
MAP3K10 (human) = MAP3K10 (human) (UniProt Q02779)
[1] = biological target: TYK2 JH1 catalytic (human) (UniProt P29597)
[2] = biological target: JAK1 JH2 pseudokinase (human) (UniProt P23458)
PRKACB (human) = PRKACB (human) (UniProt P22694)
PAK6 (human) = PAK6 (human) (UniProt Q9NQU5)
MAPK13 (human) = MAPK13 (human) (UniProt O15264)
MAP3K12 (human) = MAP3K12 (human) (UniProt Q12852)
ERBB4 (human) = ERBB4 (human) (UniProt Q15303)
CAMK1G (human) = CAMK1G (human) (UniProt Q96NX5)
HCK (human) = HCK (human) (UniProt P08631)
PAK2 (human) = PAK2 (human) (UniProt Q13177)
ACVR1 (human) = ACVR1 (human) (UniProt Q04771)
STK24 (human) = STK24 (human) (UniProt Q9Y6E0)
CHEK2 (human) = CHEK2 (human) (UniProt O96017)
CDKL2 (human) = CDKL2 (human) (UniProt Q92772)
MAPK9 (human) = MAPK9 (human) (UniProt P45984)
CAMKK2 (human) = CAMKK2 (human) (UniProt Q96RR4)
LTK (human) = LTK (human) (UniProt P29376)
EPHB2 (human) = EPHB2 (human) (UniProt P29323)
IKBKE (human) = IKBKE (human) (UniProt Q14164)
PAK3 (human) = PAK3 (human) (UniProt O75914)
MAP4K2 (human) = MAP4K2 (human) (UniProt Q12851)
PRKD1 (human) = PRKD1 (human) (UniProt Q15139)
IRAK3 (human) = IRAK3 (human) (UniProt Q9Y616)
ZAP70 (human) = ZAP70 (human) (UniProt P43403)
MLTK (human) = MLTK (human) (UniProt Q9NYL2)
RPS6KA1 KD1 (human) = RPS6KA1 KD1 (human) (UniProt Q15418)
MARK3 (human) = MARK3 (human) (UniProt P27448)
MAP4K4 (human) = MAP4K4 (human) (UniProt O95819)
RPS6KA4 KD2 (human) = RPS6KA4 KD2 (human) (UniProt O75676)
CSNK1D (human) = CSNK1D (human) (UniProt P48730)

Sequence of PRKD1 (human) (Q15139 whole entry, looked up): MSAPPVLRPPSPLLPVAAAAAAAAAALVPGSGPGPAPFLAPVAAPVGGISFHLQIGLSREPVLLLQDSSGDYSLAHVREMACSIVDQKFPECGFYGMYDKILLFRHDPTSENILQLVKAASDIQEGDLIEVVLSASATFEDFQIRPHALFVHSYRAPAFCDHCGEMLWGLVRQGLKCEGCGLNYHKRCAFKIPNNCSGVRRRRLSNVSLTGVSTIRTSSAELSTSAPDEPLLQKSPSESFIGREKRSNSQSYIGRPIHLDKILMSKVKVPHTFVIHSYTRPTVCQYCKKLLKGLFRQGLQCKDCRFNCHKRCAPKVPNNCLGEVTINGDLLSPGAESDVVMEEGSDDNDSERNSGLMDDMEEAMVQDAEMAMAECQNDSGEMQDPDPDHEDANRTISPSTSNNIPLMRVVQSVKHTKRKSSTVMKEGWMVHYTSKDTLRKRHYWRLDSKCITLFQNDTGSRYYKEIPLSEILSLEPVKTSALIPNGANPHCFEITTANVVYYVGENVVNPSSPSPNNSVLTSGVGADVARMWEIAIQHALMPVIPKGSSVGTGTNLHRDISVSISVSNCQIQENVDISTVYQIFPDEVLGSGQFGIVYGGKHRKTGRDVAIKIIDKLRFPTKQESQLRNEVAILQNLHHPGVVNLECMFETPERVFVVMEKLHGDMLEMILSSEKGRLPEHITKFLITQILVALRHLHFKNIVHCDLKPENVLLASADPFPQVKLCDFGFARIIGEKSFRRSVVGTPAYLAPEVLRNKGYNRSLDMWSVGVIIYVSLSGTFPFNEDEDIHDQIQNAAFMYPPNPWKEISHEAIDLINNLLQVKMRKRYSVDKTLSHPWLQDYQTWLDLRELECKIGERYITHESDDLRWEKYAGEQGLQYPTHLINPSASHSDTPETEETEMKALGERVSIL
Sequence of ACVR1 (human) (Q04771 whole entry, looked up): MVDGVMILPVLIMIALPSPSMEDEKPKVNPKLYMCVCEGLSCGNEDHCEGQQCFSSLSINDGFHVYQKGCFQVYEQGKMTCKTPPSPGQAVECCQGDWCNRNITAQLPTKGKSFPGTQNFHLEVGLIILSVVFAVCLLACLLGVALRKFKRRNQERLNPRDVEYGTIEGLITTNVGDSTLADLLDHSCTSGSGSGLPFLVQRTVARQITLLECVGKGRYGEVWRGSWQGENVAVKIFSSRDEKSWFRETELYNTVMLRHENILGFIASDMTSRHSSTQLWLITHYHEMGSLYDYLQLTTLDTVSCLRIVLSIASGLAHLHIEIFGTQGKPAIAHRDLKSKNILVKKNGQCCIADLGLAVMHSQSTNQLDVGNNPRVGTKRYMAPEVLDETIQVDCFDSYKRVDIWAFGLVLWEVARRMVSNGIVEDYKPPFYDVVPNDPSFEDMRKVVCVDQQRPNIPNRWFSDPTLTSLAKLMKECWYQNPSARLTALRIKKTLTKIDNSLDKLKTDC
Sequence of PAK3 (human) (O75914 whole entry, looked up): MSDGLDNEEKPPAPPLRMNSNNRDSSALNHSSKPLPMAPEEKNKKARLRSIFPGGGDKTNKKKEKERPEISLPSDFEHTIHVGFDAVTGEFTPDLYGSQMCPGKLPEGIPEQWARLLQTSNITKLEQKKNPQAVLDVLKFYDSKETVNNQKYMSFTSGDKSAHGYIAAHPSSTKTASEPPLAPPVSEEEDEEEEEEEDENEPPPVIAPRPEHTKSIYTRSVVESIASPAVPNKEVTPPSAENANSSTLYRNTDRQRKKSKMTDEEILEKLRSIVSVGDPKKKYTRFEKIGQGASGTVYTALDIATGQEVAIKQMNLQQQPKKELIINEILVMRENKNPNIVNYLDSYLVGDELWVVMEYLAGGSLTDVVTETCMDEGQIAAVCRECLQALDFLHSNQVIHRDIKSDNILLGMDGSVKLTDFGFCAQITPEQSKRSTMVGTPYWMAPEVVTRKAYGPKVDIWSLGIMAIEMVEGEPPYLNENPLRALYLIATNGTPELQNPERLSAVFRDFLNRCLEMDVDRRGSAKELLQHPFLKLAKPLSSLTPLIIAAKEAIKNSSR
Sequence of MAP4K4 (human) (O95819 whole entry, looked up): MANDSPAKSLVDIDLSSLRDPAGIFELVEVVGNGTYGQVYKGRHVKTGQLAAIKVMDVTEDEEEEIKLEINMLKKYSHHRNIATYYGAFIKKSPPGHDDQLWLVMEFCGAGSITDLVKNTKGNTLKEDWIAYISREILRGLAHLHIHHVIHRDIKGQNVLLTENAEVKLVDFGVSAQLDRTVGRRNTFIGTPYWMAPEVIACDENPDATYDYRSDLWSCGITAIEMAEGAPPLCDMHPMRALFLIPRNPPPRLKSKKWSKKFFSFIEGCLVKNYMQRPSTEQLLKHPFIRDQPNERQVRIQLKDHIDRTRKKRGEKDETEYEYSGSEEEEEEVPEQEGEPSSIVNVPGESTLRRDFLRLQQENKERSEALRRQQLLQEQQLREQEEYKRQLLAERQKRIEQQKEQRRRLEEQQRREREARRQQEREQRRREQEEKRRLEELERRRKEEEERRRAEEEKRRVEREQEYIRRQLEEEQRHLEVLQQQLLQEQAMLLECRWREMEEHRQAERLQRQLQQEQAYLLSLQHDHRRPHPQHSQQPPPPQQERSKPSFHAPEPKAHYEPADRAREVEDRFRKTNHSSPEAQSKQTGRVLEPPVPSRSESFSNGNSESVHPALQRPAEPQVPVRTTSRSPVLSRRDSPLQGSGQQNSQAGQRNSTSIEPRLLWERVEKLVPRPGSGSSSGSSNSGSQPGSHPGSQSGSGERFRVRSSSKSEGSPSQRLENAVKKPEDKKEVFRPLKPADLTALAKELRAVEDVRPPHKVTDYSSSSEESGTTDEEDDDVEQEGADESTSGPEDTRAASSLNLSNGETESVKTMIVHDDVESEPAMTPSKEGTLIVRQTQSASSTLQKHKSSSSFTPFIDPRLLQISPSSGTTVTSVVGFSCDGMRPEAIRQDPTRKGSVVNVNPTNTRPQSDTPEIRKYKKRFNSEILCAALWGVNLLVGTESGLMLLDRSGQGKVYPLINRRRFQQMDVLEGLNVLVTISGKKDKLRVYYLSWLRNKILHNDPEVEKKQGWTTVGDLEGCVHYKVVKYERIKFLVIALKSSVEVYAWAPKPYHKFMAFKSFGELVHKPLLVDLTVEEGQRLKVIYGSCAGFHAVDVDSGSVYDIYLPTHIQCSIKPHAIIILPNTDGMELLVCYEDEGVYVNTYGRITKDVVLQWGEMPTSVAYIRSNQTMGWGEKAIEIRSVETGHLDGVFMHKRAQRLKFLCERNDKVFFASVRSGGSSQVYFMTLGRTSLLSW
Sequence of EPHB2 (human) (P29323 whole entry, looked up): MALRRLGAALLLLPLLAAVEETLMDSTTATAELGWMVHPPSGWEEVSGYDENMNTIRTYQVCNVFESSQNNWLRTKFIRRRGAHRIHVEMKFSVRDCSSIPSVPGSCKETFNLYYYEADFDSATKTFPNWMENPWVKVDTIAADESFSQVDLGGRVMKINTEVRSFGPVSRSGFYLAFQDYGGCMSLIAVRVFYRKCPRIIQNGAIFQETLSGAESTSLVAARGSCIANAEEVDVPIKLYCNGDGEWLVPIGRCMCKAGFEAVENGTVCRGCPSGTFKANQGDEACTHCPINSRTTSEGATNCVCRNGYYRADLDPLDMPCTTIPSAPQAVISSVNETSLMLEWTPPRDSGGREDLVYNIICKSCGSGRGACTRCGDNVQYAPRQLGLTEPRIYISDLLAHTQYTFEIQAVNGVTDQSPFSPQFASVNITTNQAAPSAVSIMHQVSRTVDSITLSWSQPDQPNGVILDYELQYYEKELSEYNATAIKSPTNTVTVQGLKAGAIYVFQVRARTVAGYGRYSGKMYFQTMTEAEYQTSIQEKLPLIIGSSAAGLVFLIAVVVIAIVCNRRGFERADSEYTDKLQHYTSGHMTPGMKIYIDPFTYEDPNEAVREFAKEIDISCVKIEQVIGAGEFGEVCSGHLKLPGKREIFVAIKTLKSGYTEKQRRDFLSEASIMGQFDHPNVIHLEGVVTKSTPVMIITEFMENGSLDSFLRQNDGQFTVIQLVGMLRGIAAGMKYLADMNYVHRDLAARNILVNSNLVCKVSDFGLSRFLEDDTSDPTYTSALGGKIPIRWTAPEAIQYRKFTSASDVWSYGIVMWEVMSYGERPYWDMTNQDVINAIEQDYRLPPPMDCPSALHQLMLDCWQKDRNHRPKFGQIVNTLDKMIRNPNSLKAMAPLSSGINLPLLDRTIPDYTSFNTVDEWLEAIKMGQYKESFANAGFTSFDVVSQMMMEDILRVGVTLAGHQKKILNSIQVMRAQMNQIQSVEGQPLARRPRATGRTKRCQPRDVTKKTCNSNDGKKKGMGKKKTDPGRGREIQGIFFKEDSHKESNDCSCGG
Sequence of CAMK1G (human) (Q96NX5 whole entry, looked up): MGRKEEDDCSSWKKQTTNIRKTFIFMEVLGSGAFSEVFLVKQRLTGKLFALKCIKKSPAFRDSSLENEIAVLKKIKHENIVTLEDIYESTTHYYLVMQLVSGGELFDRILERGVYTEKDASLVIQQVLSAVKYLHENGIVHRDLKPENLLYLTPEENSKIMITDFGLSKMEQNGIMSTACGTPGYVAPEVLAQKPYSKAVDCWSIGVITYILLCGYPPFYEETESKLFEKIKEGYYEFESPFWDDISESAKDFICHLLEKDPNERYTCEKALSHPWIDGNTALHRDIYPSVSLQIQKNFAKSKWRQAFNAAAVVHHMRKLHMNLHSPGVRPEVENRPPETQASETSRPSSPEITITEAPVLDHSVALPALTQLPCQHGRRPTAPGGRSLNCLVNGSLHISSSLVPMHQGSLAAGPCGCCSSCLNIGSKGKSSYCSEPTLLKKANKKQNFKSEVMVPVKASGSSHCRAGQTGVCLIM

| SMILES | kinase still bound, per cent of control (RIPK1 (human)) | kinase still bound, per cent of control (STK4 (human)) | kinase still bound, per cent of control (STK33 (human)) | kinase still bound, per cent of control (ACVR2B (human)) | kinase still bound, per cent of control (CLK4 (human)) | kinase still bound, per cent of control (MAP3K10 (human)) | kinase still bound, per cent of control [1] | kinase still bound, per cent of control [2] | kinase still bound, per cent of control (PRKACB (human)) | kinase still bound, per cent of control (PAK6 (human)) | kinase still bound, per cent of control (MAP3K12 (human)) | kinase still bound, per cent of control (ERBB4 (human)) | kinase still bound, per cent of control (CAMK1G (human)) | kinase still bound, per cent of control (HCK (human)) | kinase still bound, per cent of control (PAK2 (human)) | kinase still bound, per cent of control (ACVR1 (human)) | kinase still bound, per cent of control (STK24 (human)) | kinase still bound, per cent of control (MAPK9 (human)) | kinase still bound, per cent of control (CAMKK2 (human)) | kinase still bound, per cent of control (LTK (human)) | further results |
| --- | --- | --- | --- | --- | --- | --- | --- | --- | --- | --- | --- | --- | --- | --- | --- | --- | --- | --- | --- | --- | --- |
| Cc1n[nH]c2ccc(-c3cncc(OC[C@@H](N)Cc4c[nH]c5ccccc45)c3)cc12 | 100% | 100% | 2.6% | 100% | 2.6% | 100% | 100% | 100% | 0.45% | 16% | 100% | 100% | 100% | 100% | 4.6% | 100% | 100% | 100% | 2% | 100% | kinase still bound, per cent of control (MAPK13 (human)): 4.4%; kinase still bound, per cent of control (CHEK2 (human)): 100%; kinase still bound, per cent of control (CDKL2 (human)): 5.2%; kinase still bound, per cent of control (EPHB2 (human)): 100%; kinase still bound, per cent of control (IKBKE (human)): 24%; kinase still bound, per cent of control (PAK3 (human)): 100%; kinase still bound, per cent of control (MAP4K2 (human)): 8.8%; kinase still bound, per cent of control (PRKD1 (human)): 2%; kinase still bound, per cent of control (IRAK3 (human)): 30%; kinase still bound, per cent of control (ZAP70 (human)): 100%; kinase still bound, per cent of control (MLTK (human)): 100%; kinase still bound, per cent of control (RPS6KA1 KD1 (human)): 100%; kinase still bound, per cent of control (MARK3 (human)): 9.4%; kinase still bound, per cent of control (MAP4K4 (human)): 2.2%; kinase still bound, per cent of control (RPS6KA4 KD2 (human)): 9.9% |
| CNC(=O)c1ccc(Nc2cc(Nc3ccccc3S(=O)(=O)C(C)C)c3cc[nH]c3n2)nc1 | 100% | 4.2% | 1.4% | 100% | 0.35% | 18% | 0.25% | 0.05% | 13% | 100% | 0.4% | 100% | 100% | 11% | 100% | 100% | 100% | 100% | 100% | 0% | kinase still bound, per cent of control (CSNK1D (human)): 100%; kinase still bound, per cent of control (MAPK13 (human)): 100%; kinase still bound, per cent of control (CHEK2 (human)): 100%; kinase still bound, per cent of control (CDKL2 (human)): 100%; kinase still bound, per cent of control (EPHB2 (human)): 100%; kinase still bound, per cent of control (IKBKE (human)): 100%; kinase still bound, per cent of control (PAK3 (human)): 1%; kinase still bound, per cent of control (MAP4K2 (human)): 11%; kinase still bound, per cent of control (PRKD1 (human)): 100%; kinase still bound, per cent of control (IRAK3 (human)): 15%; kinase still bound, per cent of control (ZAP70 (human)): 100%; kinase still bound, per cent of control (MLTK (human)): 100%; kinase still bound, per cent of control (RPS6KA1 KD1 (human)): 0.8%; kinase still bound, per cent of control (MARK3 (human)): 13%; kinase still bound, per cent of control (MAP4K4 (human)): 31%; kinase still bound, per cent of control (RPS6KA4 KD2 (human)): 100% |
| C=CC(=O)Nc1ccc(CN(C(=O)Nc2c(Cl)c(OC)cc(OC)c2Cl)c2cc(Nc3ccc(N4CCN(C)CC4)cc3)ncn2)cc1 | 100% | 100% | 31% | 100% | 100% | 13% | 12% | 100% | 100% | 100% | 100% | 2.2% | 100% | 11% | 100% | 100% | 18% | 100% | 100% | 27% | kinase still bound, per cent of control (CSNK1D (human)): 100%; kinase still bound, per cent of control (MAPK13 (human)): 4.9%; kinase still bound, per cent of control (CHEK2 (human)): 100%; kinase still bound, per cent of control (CDKL2 (human)): 0.35%; kinase still bound, per cent of control (EPHB2 (human)): 100%; kinase still bound, per cent of control (IKBKE (human)): 100%; kinase still bound, per cent of control (PAK3 (human)): 100%; kinase still bound, per cent of control (MAP4K2 (human)): 100%; kinase still bound, per cent of control (PRKD1 (human)): 100%; kinase still bound, per cent of control (IRAK3 (human)): 100%; kinase still bound, per cent of control (ZAP70 (human)): 100%; kinase still bound, per cent of control (MLTK (human)): 100%; kinase still bound, per cent of control (RPS6KA1 KD1 (human)): 100%; kinase still bound, per cent of control (MARK3 (human)): 100%; kinase still bound, per cent of control (MAP4K4 (human)): 100%; kinase still bound, per cent of control (RPS6KA4 KD2 (human)): 100% |
| CCN(CC)CCCCNc1ncc2cc(-c3cc(OC)cc(OC)c3)c(NC(=O)NC(C)(C)C)nc2n1 | 100% | 100% | 100% | 100% | 100% | 100% | 100% | 100% | 100% | 100% | 100% | 100% | 100% | 100% | 100% | 100% | 7% | 100% | 100% | 100% | kinase still bound, per cent of control (CSNK1D (human)): 100%; kinase still bound, per cent of control (EPHB2 (human)): 100%; kinase still bound, per cent of control (IKBKE (human)): 100%; kinase still bound, per cent of control (PAK3 (human)): 100%; kinase still bound, per cent of control (PRKD1 (human)): 100%; kinase still bound, per cent of control (IRAK3 (human)): 100%; kinase still bound, per cent of control (ZAP70 (human)): 100%; kinase still bound, per cent of control (MLTK (human)): 100%; kinase still bound, per cent of control (RPS6KA1 KD1 (human)): 100%; kinase still bound, per cent of control (MARK3 (human)): 100%; kinase still bound, per cent of control (MAP4K4 (human)): 100%; kinase still bound, per cent of control (RPS6KA4 KD2 (human)): 100% |
